Assay results taken from patent publication US20110021547A1, “Substantially Pure and a Stable Crystalline Form of Bosentan” (ACTAVIS GROUP PTC EHF, priority 2008, published 2011).
Like-named read-outs stand apart in the source and are kept apart here.

Legend:
[1] = cited from earlier work
Tapped density = assay type: physicochemical
[2] = Particle size distribution by laser diffraction (Malvern Master Sizer 2000); assay type: physicochemical
Text: As used herein, DX means that X percent of the particles have a diameter less than a specified diameter D. Thus, a D90 or d(0.9) of less than 300 microns means that 90 volume-percent of the micronized particles in a composition have a diameter less than 300 microns.
As used herein, “Particle Size Distribution (P.S.D)” means the cumulative volume size distribution of equivalent spherical diameters as determined by laser diffraction in Malvern Master Sizer 2000 equipment or its equivalent. “Mean particle size distribution, i.e., D50” correspondingly, means the median of said particle size distribution.

[3] = Storage stability of crystalline form A5 (temperature / relative humidity); assay type: physicochemical
Description: The term “remains stable”, as defined herein, refers to lack of formation of impurities, while being stored as described herein. The stability of crystalline form A5 is measured by maintaining crystalline form A5 at a temperature of about 40° C. at a relative humidity of about 75% for at least about 1 month, specifically for a period of 6 months, or at a temperature of about 25° C. at a relative humidity of about 60% for at least about 6 months.

[4] = Polymorphic stability of form A5 after compression or particle size reduction; assay type: physicochemical
Description: The X-Ray powder diffraction was measured by an X-ray powder Diffractometer equipped with a Cu-anode (λ=1.54 Angstrom), X-ray source operated at 40 kV, 40 mA and a Ni filter is used to strip K-beta radiation. Two-theta calibration is performed using an NIST SRM 1976, Corundum standard. The sample was analyzed using the following instrument parameters: measuring range=3-45° 2θ; step width=0.01579°; and measuring time per step=0.11 second.

Row | SMILES | Particle Size Distribution d(0.1) [2] | Particle Size Distribution d(0.5) [2] | Particle Size Distribution d(0.9) [2] | other results
1 | COc1ccccc1Oc1c(NS(=O)(=O)c2ccc(C(C)(C)C)cc2)nc(-c2ncccn2)nc1OCCO [Bosentan, p-tert-butyl-N-[6-(2-hydroxyethoxy)-5-(2-methoxyphenoxy)-2-(2-pyrimidinyl)-4-pyrimidinyl]benzenesulfonamide monohydrate] |  |  |  | solubility in aqueous solution at low pH ([1]; pH 1.1): 0.1 mg/100 ml; solubility in aqueous solution at low pH ([1]; pH 4.0): 0.1 mg/100 ml; solubility in aqueous solution at low pH ([1]; pH 5.0): 0.2 mg/100 ml; solubility in water ([1]; water): 1.0 mg/100 ml
2 | COc1ccccc1Oc1c(NS(=O)(=O)c2ccc(C(C)(C)C)cc2)nc(-c2ncccn2)nc1OCCO [Example 3, Bosentan] |  |  |  | Tapped density (Tapped density): 0.668 g/mL
3 | COc1ccccc1Oc1c(NS(=O)(=O)c2ccc(C(C)(C)C)cc2)nc(-c2ncccn2)nc1OCCO [Example 4, Bosentan] |  |  |  | Tapped density (Tapped density): 0.714 g/mL
4 | COc1ccccc1Oc1c(NS(=O)(=O)c2ccc(C(C)(C)C)cc2)nc(-c2ncccn2)nc1OCCO [Example 5, Bosentan] |  |  |  | Tapped density (Tapped density): 0.626 g/mL
5 | COc1ccccc1Oc1c(NS(=O)(=O)c2ccc(C(C)(C)C)cc2)nc(-c2ncccn2)nc1OCCO [Example 6, Bosentan] |  |  |  | Tapped density (Tapped density): 0.667 g/mL
6 | COc1ccccc1Oc1c(NS(=O)(=O)c2ccc(C(C)(C)C)cc2)nc(-c2ncccn2)nc1OCCO [Example 7, Bosentan] | 13.39 microns | 85.61 microns | 231.09 microns | 
7 | COc1ccccc1Oc1c(NS(=O)(=O)c2ccc(C(C)(C)C)cc2)nc(-c2ncccn2)nc1OCCO [Example 8, Bosentan] |  |  | less than 60 microns | 
8 | COc1ccccc1Oc1c(NS(=O)(=O)c2ccc(C(C)(C)C)cc2)nc(-c2ncccn2)nc1OCCO [Example 9, Bosentan] |  |  | less than 130 microns | 
9 | COc1ccccc1Oc1c(NS(=O)(=O)c2ccc(C(C)(C)C)cc2)nc(-c2ncccn2)nc1OCCO [Example 9A, Bosentan] |  | 28.95 microns | 120.88 microns | 
10 | COc1ccccc1Oc1c(NS(=O)(=O)c2ccc(C(C)(C)C)cc2)nc(-c2ncccn2)nc1OCCO [Example 9B, Bosentan] | 11.76 microns | 38.96 microns | 78.25 microns | 
11 | COc1ccccc1Oc1c(NS(=O)(=O)c2ccc(C(C)(C)C)cc2)nc(-c2ncccn2)nc1OCCO [Example 9C, Bosentan] | 7.89 microns | 31.92 microns | 69.43 microns | 
12 | COc1ccccc1Oc1c(NS(=O)(=O)c2ccc(C(C)(C)C)cc2)nc(-c2ncccn2)nc1OCCO [Example 9D, Bosentan] | 14.85 microns | 53.73 microns | 109.61 microns | 
13 | COc1ccccc1Oc1c(NS(=O)(=O)c2ccc(C(C)(C)C)cc2)nc(-c2ncccn2)nc1OCCO [Example 9E, Bosentan] | 17.03 microns | 58.84 microns | 127.11 microns | 
14 | COc1ccccc1Oc1c(NS(=O)(=O)c2ccc(C(C)(C)C)cc2)nc(-c2ncccn2)nc1OCCO [bosentan crystalline form A5, Bosentan] |  |  |  | stability on storage, tendency to convert to other forms ([3]; about 25° C., relative humidity about 60%, at least about 6 months): more stable; crystalline form and stability on storage ([3]; about 25±2° C., relative humidity about 60±5%, 6 months): remains in the same crystalline form and stable; crystalline form and stability on storage ([3]; about 25±2° C., relative humidity about 60±5%, at least one month): remains in the same crystalline form and stable; stability on storage, tendency to convert to other forms ([3]; about 40° C., relative humidity about 75%, at least about 1 month, specifically 6 months): more stable; crystalline form and stability on storage ([3]; about 40±2° C., relative humidity about 75±5%, 6 months): remains in the same crystalline form and stable; crystalline form and stability on storage ([3]; about 40±2° C., relative humidity about 75±5%, at least one month): remains in the same crystalline form and stable; crystalline form and stability after mechanical particle size reduction ([4]; cutting, chipping, crushing, milling, grinding, micronizing): remains in the same crystalline faun and stable; crystalline form and stability after compression ([4]; pressure of about 7.5 tons/cm^2 for 10 to 15 minutes, checked by X-ray diffractometer): remains in the same crystalline form and stable
